“Also recorded” adds a separate entry of the source. Square brackets hold non-standard residues; d marks the D form. Ends that are not written are not given here.
What was measured:
IL-12p40 = assay: LPS-induced serum IL-12p40 in mice, ELISA; assay type: in vivo; conditions: female BALB/c mice, serum at 4 hours; for serum IL-12p40 level compared with PBS-treated animals: i.v. 1 μg LPS with 3 mg/kg peptide; for inhibition of LPS-induced serum IL-12p40: i.v. single bolus 1 μg LPS with 3 mg/kg peptide
Experimental: FIG. 30 is a graph showing that A464 inhibits LPS-induced IL-12/23 p40 in vivo. Groups of 5 female BALB/c mice were injected i.v. with a single bolus of one of the following: PBS, 1 μg LPS, 1 μg LPS with 3 mg/kg D-9RN-A464 (SEQ ID NO. 38), 1 μg LPS with 3 mg/kg L-9RN-A464 (SEQ ID NO. 38), or 1 μg LPS with 3 mg/kg L-9RN-A467 (SEQ ID NO. 39). Four hours later, blood was harvested and serum derived. The serum was assayed for IL-12p40 by ELISA. Concentrations are expressed as pg/ml. * p<0.05, *** p<0.001 samples versus LPS. # p<0.01 samples versus PBS.
Cytokine and chemokine production from cells or mouse serum was measured by ELISA using Duoset kits from R&D systems, according to the manufacturer's instructions.
To do this we used a well characterised model of Gram negative sepsis, where mice are injected with LPS and serum cytokines are later analysed by ELISA. […] Mice were injected i.v. with LPS alone, or with peptide in the presence of LPS. Four hours later serum IL-12p40 concentrations were measured. […] Thus peptides based on the 464 sequence (SEQ ID No. 4) have efficacy in vivo. Thus peptides comprising the 464 sequence (SEQ ID No.4) can inhibit LPS induced proinflammatory IL-12p40 in vivo.

RAW264.7 cells = assay: MTT cell viability assay, RAW264.7; assay type: cell-based, murine
Experimental: FIGS. 5A and B are bar charts showing the dose-dependent inhibitory effect of A464R on LPS-induced TNFα in murine RAW264.7 cells. A464 (SEQ ID NO. 20) was added to the cells at a concentration of 5, 20 or 50 μM 1 hour before stimulating with 100 ng/ml LPS. Supernatant was collected 24 hours after stimulation and assayed for TNFα by ELISA (A) and cells were assayed for viability by the MTT assay (B.). No peptides were added to the control wells (black bars). Data is representative of at least three experiments each performed in triplicate and is expressed as mean±s.d;
FIGS. 10A and B are bar charts showing the effect of A464 on poly(I:C)-induced TNFα in murine RAW264.7 cells. Cells were seeded in 96 well plates (1.5×10^5 cells/nil) 24 hours before treatment. A464 (SEQ ID NO. 20) was added to the cells at a concentration of 5, 20 or 50 μM 1 hour before stimulating with 25 μg/ml Poly(I:C). […] Data is representative of at least three experiments each performed in triplicate and is expressed as mean±s.d;
Cell viability was measured by assessing mitochondrial function using an MTT (3-(4,5-Dimethylthiazol-2-yl)-2,5-diphenyltetrazolium bromide) assay. […] MTT was then removed and 200 μl per well of dimethyl sulphoxide (DMSO) was added and cells incubated for 20 min at 37° C. in the dark, prior to absorbance being read at 595 nm on a spectrophotometer.

IRF3 = assay: LPS-induced IRF3 activation, IRF3-GAL4 reporter assay in HEK293_TLR4 cells; assay type: cell-based, human; conditions: peptide 1, 5 or 10 μM, 10 ng/ml LPS 6 h
Experimental: FIG. 26 is a bar chart showing the effect of A464 on LPS-induced IRF3 activation in HEK293 cells. HEK293_TLR4 cells were seeded in 96 well plate (1.5×10^5 cells/ml) 24 hours before transfection with the plasmid DNA. Cells were transfected with a plasmid encoding IRF3-GAL4, together with pFR-luciferase and TK-Renilla reporter gene plasmids. The total amount of plasmid DNA transfected into the cells was made up to 230 ng/well by adding pcDNA. A464 (SEQ ID NO. 20) was added to the cells at a concentration of 1, 5 or 10 μM the next day, and cells were stimulated with 10 ng/ml LPS 1 hour after treatment with the peptide for 6 hours. Cells were harvested and assayed for IRF3 activation by reporter gene assay. No peptides were added to the control wells (black bars). Data is representative of two experiments, each performed in triplicate and is expressed as mean fold induction±s.d. relative to control levels;
HEK293 cells were transfected using GeneJuice® a proprietary non-toxic transfection reagent. 200 μl/well cells at a density of 1×10^5 cells/ml were seeded the day before transfection. 0.8 μl of GeneJuice was mixed with 9.2 μl of serum-free DMEM (SFM) per transfection and incubated for 5 min at room temperature before adding the appropriate amount of the plasmid DNA. […] Luciferase activity was analysed using a luminometer.

Row | Substance | serum IL-12p40 level compared with PBS-treated animals (IL-12p40; listed as L-9RN-A464, 3 mg/kg) | inhibition of LPS-induced serum IL-12p40 (IL-12p40) | serum IL-12p40 level compared with PBS-treated animals (IL-12p40; 3 mg/kg) | toxicity (MTT) in the presence of LPS (RAW264.7 cells; 100 ng/ml LPS, 24 h) | toxicity (MTT) in the absence of LPS (RAW264.7 cells; no LPS) | inhibition of LPS-induced IRF3 activation (IRF3)
1 | 9RN-A464 (RRRRRRRRRKYSFKLILAEY) [Peptide 9RN-A464] | not significantly different from mice receiving only PBS; also recorded: not significantly different from the PBS-treated animals | significantly inhibited LPS-induced IL-12p40 |  |  |  | 
2 | D-9RN-A464 ([dR][dR][dR][dR][dR][dR][dR][dR][dR][dK][dY][dS][dF][dK][dL][dI][dL][dA][dE][dY]) [Peptide D-9RN-A464] |  | significantly inhibited LPS-induced IL-12p40 | not significantly different from mice receiving only PBS; also recorded: not significantly different from the PBS-treated animals |  |  | 
3 | KYSFKLILAEYRRRRRRRRR [Peptide A464] |  |  |  | no toxicity at the concentrations of 5 and 20 μM | some cytotoxicity at 20 μM | completely inhibited LPS-induced IRF3 activation at 1 μM

From US8722052B2, “Vaccinia virus protein A46 peptide and use thereof” (priority 2008, dated 2014)
